Source: patent US20250360180A1, “ECHINOCANDIN COMPOUND, AND PREPARATION METHOD THEREFOR AND USE THEREOF” (Zhejiang University, priority 2022, published 2025)
Values after ≈ are worked out from the molar mass of the structure shown.

System: Candida albicans ATCC 10231
Assay: Minimum inhibitory concentration (MIC) by broth microdilution method
Assay type: cell-based
Details: for MIC value: broth microdilution in MH broth, 37° C., 12 hours, OD600, MIC = lowest concentration that inhibited the growth of more than 90% of the strains; for activity against Candida albicans (in words): summary statement of the MIC experiments
Procedure: The minimum inhibitory concentration (MIC) values of echinocandin E and echinocandin F were determined by broth microdilution method, and the test strain was Candida albicans ATCC 10231. The MIC value was defined as the lowest antibiotic concentration that inhibited the growth of more than 90% of the strains. Amphotericin B was used as a positive control and echinocandin B as a reference, and each sample was subjected to three parallel experiments.
Candida albicans was cultured in Mueller-Hinton (MH) broth (50 mL 20× Nitrate Salts, 1 mL Trace Elements, and 10.0 g glucose, dissolved in 800 mL ddH2O, adjusted to pH 6.5, fixed to 1 L, added with 16.0 g agar powder, and sterilized at 121° C. for 20 min) (purchased from Hangzhou Basebio Biotechnology Co., Ltd. (Basebio)) and cultured at 37° C. and 180 rpm for 12-16 hours. The fungal solution concentration was controlled to […] by gradient dilution with MH broth.
The sample solution was prepared by dissolving the test samples (amphotericin B, echinocandin B, echinocandin E, echinocandin F) in DMSO to prepare a stock solution with a concentration of 40 μg/ml. An appropriate amount of sterile MH broth medium and the test compounds were added to a 96-well plate, and Candida albicans was quantitatively inoculated so that the total liquid volume in each well was 100 μL. The final concentrations of the compounds were 2, 1.5, 1, 0.8, 0.6, 0.4, 0.2, 0.1, 0.05 and 0 μg/ml, respectively, and DMSO (volume concentration of 5%) was used as a negative control.
The fungal concentration was measured at OD600 using an ELISA reader to determine the MIC value of each sample.

Row | Compound | MIC value [µg/mL] | activity against Candida albicans (in words)
1 | echinocandin H | 0.8 | good activity
2 | echinocandin F | 1.0 | good activity
3 | echinocandin G | 0.8 | good activity
4 | echinocandin B [reference compound] | 0.4 | –
5 | echinocandin E | 0.6 | good activity
6 | C[C@@H]1[C@H](O)[C@@H](C)/C=C/C=C/C=C/C=C/C=C/C=C/C=C/[C@H](O[C@@H]2O[C@H](C)[C@@H](O)[C@H](N)[C@@H]2O)C[C@@H]2O[C@](O)(C[C@@H](O)C[C@@H](O)[C@H](O)CC[C@@H](O)C[C@@H](O)CC(=O)O[C@H]1C)C[C@H](O)[C@H]2C(=O)O [Amphotericin B, reference compound] | 0.2 (≈ 0.216 µM) | –
